Reference: patent US11077167B2, “Agent for promoting skeletal muscle injury repair” (Osaka University, priority 2017, dated 2021)

Columns and labels:
[1] = system: muscle injury model rats (incised masseter muscles on both sides); assay: Behavioral physiological experiment (feeding efficiency), Example 2; format: in vivo, Jcl:SD rats
Protocol: Incisions were made in masseter muscles on both sides in Jcl:SD rats (10 weeks old) under anesthesia in the same manner as in Example 1. Immediately after muscle incision, 1 mL each of the SV peptide (20 ng/mL) or 1 mL each of PBS was intramuscularly administered into several sites surrounding the cut surfaces. The incision on each side was made along a straight line connecting the lateral angle of the eye and the mandibular angle, extending in depth from the fascia on the skin side to the lateral periosteum on the mandibular ramus. The cut surfaces were subjected to electrocoagulation with an electric scalpel for the arrest of bleeding (see FIG. 1). […]
In the same manner as in Example 1, each rat was housed in a transparent plastic cage of 30 cm in length×30 cm in width×30 cm in height at postoperative weeks 1, 2, 4, 6, and 8, and the behavior was recorded on video cameras during the active time of rats (18:00 to 22:00). Food intake and mastication time were measured, and the food intake per unit of mastication time (feeding efficiency) was calculated.

[2] = system: Human skeletal muscle myoblasts (HSMMs); assay: Cell proliferative capacity (WST-1 assay); format: cell-based; settings: SV peptide 20 ng/mL
Protocol: (§1) Human skeletal muscle myoblasts (HSMMs) were purchased from Lonza and used. The medium used for HSMM culture was the supplier's recommended medium (Skeletal Muscle Growth Media-2 supplemented with SingleQuots Kit).
Human skeletal muscle satellite cells and human skeletal muscle myoblasts were separately seeded at 1.0×10^4 cells/mL in each well of non-treated polystyrene 96-well cell culture plates (Falcon). The SV peptide (20 ng/mL, SV group), the random SV (20 ng/mL, random SV group), or PBS (PBS group) was added to the medium. The plates were cultured at 37° C. in a 5% CO2 atmosphere. After 0, 12, 24, 48, and 72 hours, cell proliferation was assessed using Premix WST-1 Cell Proliferation Assay System (Takara Bio, Japan).

[3] = system: Human skeletal muscle satellite cells (HskMSCs); assay: Chemotactic capacity (Chemotaxicell membrane); format: cell-based; settings: SV peptide 20 ng/mL as chemoattractant; 12 hours; vs PBS or random SV
Protocol: Human skeletal muscle satellite cells (HskMSCs) were purchased from ScienCell Research Laboratories and used. The medium used for HskMSC culture was the supplier's recommended medium (Skeletal Muscle Cell Medium containing 5% FBS, Skeletal Muscle Cell Growth Supplement, and penicillin/streptomycin solution).
A polycarbonate membrane with a pore size of 8 μm (Chemotaxicell: Kurabo Industries LTD.) was immersed in a 10 μg/mL fibronectin solution at room temperature for 30 minutes for coating the membrane. A medium containing the SV peptide (20 ng/mL, SV group), the random SV (20 ng/mL, random SV group), or PBS (PBS group) as a chemoattractant was added to a lower chamber. On an upper chamber, human skeletal muscle satellite cells and human skeletal muscle myoblasts were separately seeded at 2.0×10^4 cells/mL in DMEM containing 0.1% BSA. A pair of chambers was incubated at 37° C. for 12 hours. The cells on the upper surface of the membrane were removed with a swab, and the membrane was fixed with a 10% neutral buffered formalin solution (Wako Pure Chemical Industries, Ltd.) and stained with hematoxylin. The number of cells migrated to the lower surface of the membrane was measured under an optical microscope.

[4] = system: Human skeletal muscle myoblasts (HSMMs); assay: Cell migratory capacity (cell-denuded area); format: cell-based; settings: SV peptide 20 ng/mL
Protocol: as §1
Human skeletal muscle satellite cells and human skeletal muscle myoblasts were separately cultured on 60-mm (diameter) dishes (Iwaki) to 100% confluency. From each dish, a 2-mm-wide strip of cells were removed, and the medium was replaced with a medium containing the SV peptide (20 ng/mL, SV group), the random SV (20 ng/mL, random SV group), or PBS (PBS group). Thereafter, culture was continued. Images were taken with a digital camera mounted on a phase-contrast microscope every 12 hours. The cell-denuded area was measured using the image-analysis software ImageJ (NIH, USA). The cell migration percentage was determined by calculating the percentage of reduction in the cell-denuded area relative to the value immediately after cell removal.

[5] = system: muscle injury model rats (incised masseter muscles on both sides); assay: In vivo skeletal muscle forming capability (HE, MyoD, myogenin staining at postoperative week 1), Example 4; design: species or system Jcl:SD rats
Protocol: In the same manner as in Example 2, incisions were made in masseter muscles on both sides in Jcl:SD rats (10 weeks old) under anesthesia, and immediately after that, the rats were subjected to administration of 1 mL of the SV peptide (20 ng/mL) or 1 mL of PBS into the incised left masseter muscle without administration into the incised right masseter muscle. The two groups were called “SV group” and “PBS group”. Each rat was euthanized at postoperative week 1, and the masseter muscles on both sides were excised. The masseter muscles were embedded in paraffin and transversally sliced into histological sections by the usual method. The sections were subjected to HE staining, immunostaining with an anti-MyoD antibody and immunostaining with an anti-myogenin antibody. The anti-MyoD antibody used was an anti-mouse MyoD antibody (Abcam), and the anti-myogenin antibody used was an anti-mouse myogenin antibody (Abcam). A biotin-labeled anti-rabbit IgG antibody (DAKO) was used as a secondary antibody.
The area of granulation tissue formed on the cut surfaces was measured on the HE-staining specimens using the image-analysis software ImageJ (NIH, USA). The granulation tissue area ratios in the SV group and the PBS group were separately calculated using the following formula. […]
(§2) Images of the MyoD-immunostained specimens were taken with a digital camera mounted on a microscope, and the number of MyoD-positive nuclei in the muscle tissue area extending 2.5 mm on each side of the muscle incision site was counted. The MyoD-positive ratios in the SV group and the PBS group were separately calculated using the following formula. […]
as §2, with “myogenin-immunostained” for “MyoD-immunostained”, “myogenin-positive” for “MyoD-positive”

fibroblasts = settings: Patent Literature 4; cited from earlier work

Substance: SVVYGLR [SV peptide]
- feeding efficiency (food intake per unit of mastication time) ([1]; postoperative week 8, SV group vs PBS group): significantly higher value than that in the PBS group
- feeding efficiency (food intake per unit of mastication time) ([1]; time course postoperative weeks 1, 2, 4, 6, 8, relative to week 1 value = 1): time-dependent improvement in feeding efficiency
- cell proliferative capacity ([2]; time course within SV group): significantly increased after 24-hour treatment with the SV peptide and then reached a plateau
- cell proliferative capacity ([2]; vs PBS group or random SV group, 12 hours and thereafter): significantly higher at 12 hours post-treatment and remained significantly higher thereafter than that in the PBS group or the random SV group
- chemotactic capacity (number of cells migrated to lower surface of membrane) [3]: tended to have a higher chemotactic capacity than that of the counterpart in the PBS group or the random SV group, but there was no significant intergroup difference
- cell migratory capacity (cell migration percentage) ([4]; 36 and 48 hours after cell removal): significantly different from that in the PBS group or the random SV group
- cell migratory capacity (cell migration percentage) ([4]; 24 hours after cell removal and thereafter): higher than that in the PBS group or the random SV group
- granulation tissue area ratio (administration side / non-administration side) ([5]; HE staining): significant reduction in granulation tissue formation
- MyoD-positive ratio (administration side / non-administration side) ([5]; MyoD immunostaining, SV group vs PBS group): significant increase of MyoD-positive cells as compared with the PBS group
- myogenin-positive ratio (administration side / non-administration side) ([5]; myogenin immunostaining, SV group vs PBS group): significant increase of myogenin-positive cells as compared with the PBS group
- type III collagen production in fibroblasts (fibroblasts): promotes type III collagen production in fibroblasts
